Assay results reported in patent publication US10064826B2, “Direct compression and dry granulation processes for preparing carglumic acid tablets having less impurities than those produced by wet granulation process” (Navinta, LLC, priority 2013, dated 2018).

Test: Stability under stress conditions (alkaline, acidic, light, oxidizing medium)
Assay type: physicochemical
Conditions: light or hydrogen peroxide
Experimental: Both batches of carglumic acid tablets from Examples 1 and 2 are also evaluated for stability under stress conditions.
Principal degradation products are hydantoin-5-propionic acid (“5-HPA”) and diaza-1,3-dione-2,4-carboxy-7-cycloheptane. Among them, 5-HPA is toxic and thus it must be controlled below 0.1%. L-Pyroglutamic acid is another common impurity in the carglumic acid tablet.

Degradation when exposed to light or an oxidizing medium: slowly degraded
Structure (SMILES): NC(=O)N[C@@H](CCC(=O)O)C(=O)O [Carglumic acid, (2S)-2-(carbamoylamino)pentanedioic acid]
